This test can be described thus: Trial 2 (France): blinded randomised field trial in weaned piglets, weight gain, feed intake and feed conversion ratio versus in-feed colistin. Format: in vivo. The method, then: Aim: The objective of this study was to compare the feed conversion ratios of piglets administered a single dose of my formulation with in feed colistin, an antibiotic.
Study Outline: This study was a blinded, controlled, randomised field trial comparing three parallel groups of piglets, (n=89 per group): 1. Colistin; 2. My formulation; and 3. No treatment. In this study, whole litters are randomised to receive different treatments, so litters are treated on a whole litter basis.
Weaning on this farm occurs in 2 stages. In stage 1, piglets are weaned by removing the sow (at day-5). Then on day 0, piglets are moved to their weaning pen.
At day-5, Group 1 piglets were administered colistin (9 kg antibiotic premix per Ton of feed) in pre-starter feed for 14 days (day-5 to day 9). The other two groups were administered pre-starter feed alone. On day 0 (5 days post weaning), when piglets are moved to their weaner pens, Group 2 piglets received a single dose of my formulation. Group 3 piglets were untreated.
Analysis: As Per Study 1.

Where [1] appears, read: pre-starter phase (d-5 to d9), 6 pens.

Regarding colistin, for the setting “Post weaning”, the “Average Daily Weight gain” value was found to be 377 ± 82 g. Also, the “Average Daily Weight gain” value (Post weaning and fattening (overall)) is given as 664 ± 67 g. Under “Pre-starter (d -5 to d 9)”, the “Average Daily Weight gain” value was found to be 167 ± 67 g. Besides, the “Average Daily Weight gain” value (Starter) turned out to be 505 ± 110 g. Under setting [1], the “Feed Conversion Ratio, Arithmetic Mean” value is given as 2.71; the “Feed Conversion Ratio, Median” value is reported as 2.59; the “Feed Conversion Ratio, Min-Max” value is recorded as 1.75-3.42; the “Feed intake, Arithmetic Mean” value was found to be 417 g. In addition, the “Feed intake, Min-Max” value under setting [1] lay in the range of 358 to 479 g.

These data come from patent publication US20170239334A1, “ANTI-DIARRHEA FORMULATION WHICH AVOIDS ANTIMICROBIAL RESISTANCE” (Anatara Lifesciences Limited, priority 2014, published 2017).
